{"source": "patent US20030228281A1", "about": "“Use of mutant herpes viruses and anticancer agents in the treatment of cancer” (priority 2000, published 2003)", "key": {"G207": {"tested_on": "G207", "assay": "Effect of HU and FUdR on G207 replication in HCT8 cells", "type": "cell-based, herpes simplex virus (HSV) type 1", "experimental": "FIG. 4 depicts the results of experiments showing the effects of FUdR and HU on viral replication. HCT8 cells were infected with 2 pfu of G207 per cell. After adsorption of 1 hour at 37° C. inoculum was removed, cells were washed with PBS, and medium containing 10 nM FUdR or control medium without FUdR was added. At 8 hours pi, infected cells in presence and absence of FUdR were exposed to 1 mM HU. At 36 hours pi cells and supernatant were harvested and lysates were prepared by three cycles of freezing and thawing. Viral titers (A) and β-galactosidase activity (B) of the lysate were determined. All assays were performed in triplicates for each condition (avg ± SEM).\nVero cultures were carried for at least one subculture in E-MEM, 2 mM L-glutamine, 10% FCS. Cultures were plated at a density of 1×10^6 cells per well of 6-well plates and incubated at 37° C. in 5% CO2 in air in a humidified incubator. The following day, cultures were washed 2× with PBS, and serial dilutions of cell lysates (0.8 ml/well) were adsorbed onto triplicate dishes for 4 hours at 37° C. Cell lysates were prepared by 4 freeze-thaw cycles. Following adsorption, inoculum was removed, and cultures were overlaid with agar containing medium. Cultures were stained with neutral red 2 days post-inoculation, and plaque formation was assessed the next day."}, "[1]": {"tested_on": "β-galactosidase expression", "assay": "β-galactosidase activity (lacZ reporter gene in G207) in infected cells", "type": "cell-based", "conditions": "HCT8, 2 pfu G207 per cell, 10 nM FUdR, 1 mM HU from 8 hours pi, 36 hours pi", "experimental": "FIG. 2 depicts the results of experiments showing the influence of FUdR on β galactosidase expression following infection with G207. Cells (2×10^4) were plated in 24-well plates, and were infected with G207 at an MOI of 0.01 in presence (10 nM, oblique; 100 nM, black) and absence (white) of FUdR. At day 3 following infection, cells were lysed and total β-galactosidase activity of cell lysates was measured (A). Cell counts for each condition were determined in additional wells by trypan blue exclusion and specific activity was calculated by referring total activity to viable cell number (B). All assays were performed in triplicates (avg ± SEM). For lacZ staining 3×10^5 cells were plated onto 25 cm^2 flasks. Twelve hours later cells were infected with G207 in the presence and absence of FUdR under the same conditions as described above. At day 3 pi, cytospin slides were prepared and stained with X-gal for lacZ expression.\nFIG. 4 depicts the results of experiments showing the effects of FUdR and HU on viral replication. […] Viral titers (A) and β-galactosidase activity (B) of the lysate were determined. […]\nActivity of β-galactosidase was determined by monitoring the conversion of o-nitrophenyl galactoside (ONPG) to o-nitrophenol and galactose (β-Galactosidase Reporter Assay, Pierce, Rockford, Ill.). […] The reaction rate was determined by spectrophotometric measurement of o-nitrophenol at λ=405 nm. […]"}}}
{"smiles": "NC(=O)NO", "note": "[HU, hydroxyurea]", "values": [{"measurement": "Viral titer, cells treated with HU and FUdR", "setting": "G207; 1 mM HU and 10 nM FUdR, 36 hours pi", "value": "2.1±0.5×10^4 pfu"}, {"measurement": "Viral titer, cells treated with HU alone", "setting": "G207; 1 mM HU from 8 hours pi, 36 hours pi", "value": "1.9±0.5×10^4 pfu"}, {"measurement": "Suppression of viral replication", "setting": "G207; 1 mM HU, HCT8 cells", "value": 90, "unit": "%"}, {"measurement": "Effect on β-galactosidase expression", "setting": "[1]", "value": "neither FUdR nor HU had significant effects"}]}
